Laboratory results: publication PMC8924211 (Nature Communications, 2022)
Numbering of substitutions follows the chain as printed.

How the values were obtained:
Assay in all cases: Calcium assay, HEK293/Gα16 cells, GAL2R mutants
Type in all cases: cell-based
GAL2R mutants [1] = molecular target: T1, GAL2R mutants (Homo sapiens, UniProt O43603, L169A); details: GAL2R L169ECL2A
T1 construct: expressed in transfected cells; host or cells: HEK293
T1 sequence (O43603 1-387 L169A): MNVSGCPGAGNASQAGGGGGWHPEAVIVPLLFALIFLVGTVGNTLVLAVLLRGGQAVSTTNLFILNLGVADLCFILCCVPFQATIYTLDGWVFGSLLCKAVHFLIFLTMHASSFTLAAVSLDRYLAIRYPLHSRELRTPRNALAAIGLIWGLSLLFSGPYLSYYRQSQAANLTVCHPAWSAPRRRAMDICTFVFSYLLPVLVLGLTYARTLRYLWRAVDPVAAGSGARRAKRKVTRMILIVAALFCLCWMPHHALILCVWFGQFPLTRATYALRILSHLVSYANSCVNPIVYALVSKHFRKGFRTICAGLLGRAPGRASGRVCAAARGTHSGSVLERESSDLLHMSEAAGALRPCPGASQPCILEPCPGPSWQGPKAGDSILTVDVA

GAL2R mutants [2] = molecular target: T2, GAL2R mutants (Homo sapiens, UniProt O43603, L255A); details: GAL2R L2556.54A
T2 construct: expressed in transfected cells; host or cells: HEK293
T2 sequence (O43603 1-387 L255A): T1 sequence (O43603 1-387 L169A) with A169L, L255A

GAL2R mutants [3] = molecular target: T3, GAL2R mutants (Homo sapiens, UniProt O43603, Y164A); details: GAL2R Y1644.64A
T3 construct: expressed in transfected cells; host or cells: HEK293
T3 sequence (O43603 1-387 Y164A): T1 sequence (O43603 1-387 L169A) with Y164A, A169L

GAL2R mutants [4] = molecular target: T4, GAL2R mutants (Homo sapiens, UniProt O43603, Y271A); details: GAL2R Y2717.32A
T4 construct: expressed in transfected cells; host or cells: HEK293
T4 sequence (O43603 1-387 Y271A): T1 sequence (O43603 1-387 L169A) with A169L, Y271A

GAL2R mutants [5] = molecular target: T5, GAL2R mutants (Homo sapiens, UniProt O43603, Y86A); details: GAL2R Y862.65A
T5 construct: expressed in transfected cells; host or cells: HEK293
T5 sequence (O43603 1-387 Y86A): T1 sequence (O43603 1-387 L169A) with Y86A, A169L

[6] = response of 100 μM spexin compared to WT, mean ± S.E.M.
[7] = response of 100 μM spexin compared to WT

With spexin the Emax (GAL2R mutants [1]; [6]) was 94.58±11.1%, the EC50 (GAL2R mutants [1]; spexin, replicate 1) was 7173 nM and the Emax (GAL2R mutants [1]; spexin, replicate 1) was 77.1819%. The EC50 (GAL2R mutants [1]; spexin, replicate 2) was 5137 nM, the Emax (GAL2R mutants [1]; spexin, replicate 2) was 91.205% and the Emax (GAL2R mutants [1]; spexin, replicate 3) was 115.35%. It also gave an Emax (GAL2R mutants [2]; [6]) of 26.65±5.9%, an Emax (GAL2R mutants [2]; spexin, replicate 1) of 16.7892% and an EC50 (GAL2R mutants [2]; spexin, replicate 2) of 245.4 nM. It also gave an Emax (GAL2R mutants [2]; spexin, replicate 2) of 26.0726%, an EC50 (GAL2R mutants [2]; spexin, replicate 3) of 845.1 nM and an Emax (GAL2R mutants [2]; spexin, replicate 3) of 37.0775%. For the same substance, the Emax (GAL2R mutants [3]; [7]) was “NR (NR, no response, refers to response < 10% compared to WT receptor (spexin at 100 μM))”, the Emax (GAL2R mutants [3]; spexin, replicate 1) was “no response” and the Emax (GAL2R mutants [3]; spexin, replicate 2) was “no response”. The Emax (GAL2R mutants [3]; spexin, replicate 3) was “no response”, the Emax (GAL2R mutants [4]; [6]) was 22.23±2.2% and the EC50 (GAL2R mutants [4]; spexin, replicate 1) was 5958 nM. For the same substance, the Emax (GAL2R mutants [4]; spexin, replicate 1) was 23.9745%, the EC50 (GAL2R mutants [4]; spexin, replicate 2) was 1581 nM and the Emax (GAL2R mutants [4]; spexin, replicate 2) was 17.9395%. The EC50 (GAL2R mutants [4]; spexin, replicate 3) was 751.8 nM, the Emax (GAL2R mutants [4]; spexin, replicate 3) was 24.7776% and the Emax (GAL2R mutants [5]; [7]) was “NR (NR, no response, refers to response < 10% compared to WT receptor (spexin at 100 μM))”. The Emax (GAL2R mutants [5]; spexin, replicate 1) was “no response”, the Emax (GAL2R mutants [5]; spexin, replicate 2) was “no response” and the Emax (GAL2R mutants [5]; spexin, replicate 3) was “no response”.
